Test results taken from ChEMBL document CHEMBL4627273, “BET proteins: Investigating BRDT as a potential target for male contraception” (Bioorg Med Chem Lett, 2020).

Biological target: Bromodomain testis-specific protein (Homo sapiens, UniProt Q58F21)
Assay: Binding affinity to human partial length BRDT bromodomain 1 (N21 to E137 residues) expressed in bacterial expression system by BROMOscan assay

Kd: 6 to 19 nM
Compound: Cc1sc2c(c1C)C(c1ccc(Cl)cc1)=N[C@@H](CC(=O)NCCCCNC(=O)COc1cccc3c1C(=O)N(C1CCC(=O)NC1=O)C3=O)c1nnc(C)n1-2 (stereo partly specified)
